Data on 3 molecules can be found in patent publication US20260265262A1, “CDK2 INHIBITORS AND METHODS OF USING THE SAME” (Cedilla Therapeutics, Inc., priority 2022, published 2026).

Assay [1] addresses T1, CDK2/Cyclin E1 (Homo sapiens, UniProt P24941). Nature of the assay: CDK2/Cyclin E1 Caliper LabChip EZ Reader mobility shift assay. The format is biochemical. Particulars: 2.5 nM CDK2/Cyclin E1, 100 μM ATP, 1.5 μM fluorescent peptide, 30 min pre-incubation; read-out: Caliper Assay (CDK2/CCNE1): IC50. As to the method: Inhibition of CDK2/Cyclin E1 activity in the presence of compounds of the present disclosure was evaluated using a CaliperLabChip® EZ Reader mobility shift assay. In the assay, CDK2/Cyclin E1 (Eurofins, 14-475) catalyzed the phosphorylation of a fluorescently tagged peptide 5-FAM-QSPKKG-CONH2 (PerkinEliner, FL Peptide 18) which induced a difference in capillary electrophoresis mobility. The peptide substrate and product were measured, and the conversion ratio was used to determine the inhibition (as % activity and IC50 values) of CDK2/Cyclin E1. Reactions contained 50 mM HEPES pH 7.5, 10 mM MgCl2, 1 mM EDTA, 2 mM DTT, 0.01% Brij35, 0.5 mg/mL BSA, 0.1% DMSO, 2.5 nM CDK2/Cyclin E1, 100 μM ATP, and 1.5 μM fluorescent peptide substrate.
Dose titrations of inhibitors in 100% DMSO were combined with 3.25 nM CDK2/Cyclin E1 and 130 μM of ATP in reaction buffer. The mixtures were incubated for 30 minutes before the addition of fluorescent peptide substrate to initiate the kinase reaction. The final conditions were 2.5 nM CDK2/Cyclin E1, 100 μM ATP, and 1.5 μM fluorescent peptide. The reactions were stopped after 100 minutes with the addition of EDTA (400 mM final EDTA concentration). The stopped reactions were analyzed on a Caliper LabChip® EZ Reader II. The conversion ratios were normalized to yield % activity, plotted against compound concentration, and fit to a four-parameter equation to determine the IC50 for each compound.

For assay [2], the target named is T1, CDK2/Cyclin E1. Nature of the assay: ADP-Glo Luminescent Kinase Assay (CDK2/E1-37C). Format: biochemical. Particulars: 0.18 nM CDK2/Cyclin E1, 100 μM ATP, 1.5 μM Histone H1, 37° C., 60 min pre-incubation; read-out: ADPGLO (CDK2/E1-37C): IC50. The essentials:
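Human CDK2/Cyclin E1 preincubated with inhibitor 60 min at 37 °C, then reacted 90 min at 37 °C with final 0.18 nM enzyme, 100 μM ATP, 1.5 μM Histone H1 in HEPES pH 7.5 buffer. ADP formed read by ADP-Glo luminescence; IC50 from four-parameter fit.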
(ADP-Glo turns the ADP formed in a reaction into a luminescent signal.)

In assay [3] the test system is Kuramochi cells. Nature of the assay: IncuCyte cell proliferation assay. The conditions noted are these: Kuramochi cells labeled with mApple-H2B, cell count 0 to 72 hours, 20 μM top concentration; read-out: IncuCyte Kuramochi RB-WT: IC50. Format: cell-based. Put shortly: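 Kuramochi cells expressing mApple-H2B were treated with a 10-point, ½-log dilution series (top 20 μM). Fluorescent nuclei were counted by IncuCyte imaging at 0 and 72 h. The fold change in cell count was normalized to DMSO wells and fitted to dose-response curves to give […].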

Bounds are passed on as bounds.

For `C[C@@H](OCC1CCCCC1)[C@H](NC(=O)[C@@H]1CN(C(=O)c2cnn(Cc3ccccc3)c2)CC12CN(C(=O)[C@H]1CC1(C)C)C2)C(=O)NCCC(=O)O` [Example I-41, 3-((2S,3R)-2-((S)-6-(1-benzyl-1H-pyrazole-4-carbonyl)-2-((S)-2,2-dimethylcyclopropane-1-carbonyl)-2,6-diazaspiro[3.4]octane-8-carboxamido)-3-(cyclohexylmethoxy)butanamido)propanoic acid], the IC50 in assay [1] is less than 10 nM; in assay [2], less than 500 nM; in assay [3], more than 20000 nM.

As for `COC(=O)[C@@H](NC(=O)[C@@H]1CN(C(=O)c2cnn(Cc3ccccc3)c2)CC12CN(C(=O)[C@H]1CC1(C)C)C2)[C@@H](C)OCC1CCC2(CCC2)CC1` [Example I-43], the IC50 in assay [1] was less than 10 nM; in assay [2], less than 500 nM; in assay [3] it was 500 to 5000 nM.

Consider `COC(=O)CCNC(=O)[C@@H](NC(=O)[C@@H]1CN(C(=O)c2cnn(Cc3ccccc3)c2)CC12CN(C(=O)[C@H]1CC1(C)C)C2)[C@@H](C)OCC1CCCCC1` [Example I-42], for which the values for the IC50 in assay [1], in assay [2] and in assay [3] were less than 10 nM, less than 500 nM and less than 500 nM, respectively.
